Calls of active or inactive are those of the source.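 How the source made its calls: active means mean IC50 below 10 µM; inactive means the rest.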
These compounds were tested against Apelin receptor (Homo sapiens) (UniProt P35414) (assay: apelin receptor inhibitor analogs – cell-based, luminescence, set 2, SAR follow-up (AID 488803)). Settings: CHO-K1 APJ PathHunter beta-arrestin, antagonist.
Sequence of Apelin receptor (Homo sapiens) (P35414 whole entry, looked up): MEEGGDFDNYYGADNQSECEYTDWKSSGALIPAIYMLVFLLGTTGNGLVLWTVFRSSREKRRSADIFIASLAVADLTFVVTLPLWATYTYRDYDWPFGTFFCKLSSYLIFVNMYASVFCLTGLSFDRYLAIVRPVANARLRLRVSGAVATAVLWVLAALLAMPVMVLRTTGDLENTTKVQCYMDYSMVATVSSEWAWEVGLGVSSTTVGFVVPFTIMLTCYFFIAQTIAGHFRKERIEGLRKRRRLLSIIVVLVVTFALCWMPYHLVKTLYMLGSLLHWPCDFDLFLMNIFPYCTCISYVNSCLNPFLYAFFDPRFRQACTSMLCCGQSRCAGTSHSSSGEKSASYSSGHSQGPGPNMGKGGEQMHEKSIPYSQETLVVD

Row | IC50 | Compound
1 | > 79 µM (inactive) | CC(C)Oc1ccc(C(=O)Oc2coc(CSc3ncccn3)cc2=O)cc1
2 | > 79 µM (inactive) | Oc1cccc(CSc2ncccn2)c1
3 | inactive | Cc1ccc(N=C2C(=O)Nc3ccccc32)cc1
4 | 2.53 µM | Cc1ccc(NCC(=O)c2ccccc2)cc1

Reference: PubChem BioAssay AID488803 (Sanford-Burnham Center for Chemical Genomics, 2010)
